Reference: patent publication US20240197762A1, “NUTRITIONAL COMPOSITION FOR STIMULATIONG BIFIDOBACTERIA” (FrieslandCampina Nederland B.V., priority 2021, published 2024)

Test system: bifidobacteria (B. adolescentis and B. longum)
Assay: Fecal fermentations simulating the distal colon of elderly (microMatrix, shotgun metagenomics)
Format: cell-based, human (pool of fecal material of healthy 70+ human subjects)
Settings: oligosaccharides at 0.5 wt % final concentration, 7 hours of fermentation, pH 6.8, 37° C., compared to the blanc; FIG. 1
Protocol: Fecal fermentations were performed in a 24 well plate using the microMatrix™ (Applikon Biotechnology) as described in M. M. O'Donnell et al., Front. Microbiol., vol. 9, Aug. 10, 2018, article 1844. The wells were filled in the anaerobic chamber with medium (composition: see Table 1) to which the oligosaccharides GOS (Biotis™ GOS ex-FrieslandCampina), 2′-FL (Aequival™ 2′-FL, ex-FrieslandCampina), or mixtures thereof were added at a final concentration of 0 (blanc) or 0.5 wt % (every condition in duplicate). The plate was put in the microMatrix™ for about 20 minutes to reduce the dissolved oxygen concentration to below 5% and to increase the temperature of the medium to 37° C. After these 20 minutes, the plate was inoculated with a pool of fecal material of healthy 70+ human subjects and fermentations were started. During the fermentations, the pH of was controlled at pH 6.8 with a dead zone of 0.1 using ammonium gas and CO2. The plates were orbitally shaken at 300 rpm. Mixed gas (CO2/H2/N2: 10/5/85) was used to keep the cultures anaerobic during fermentation. After 7 hours of fermentation a sample of 1 ml was taken. Fecal samples of eight healthy elderly were included in the pool. […]

2′-fucosyllactose [2′-FL]
relative abundance of B. adolescentis and B. longum and their combined amount, relative to total bacteria content: increased
